What is called IC50 is the concentration that inhibits the measured activity by half.

For one test, the system named is RKO. In words: Proliferation inhibition, non-Wnt mutant control cell line RKO. Particulars: Wnt-independent control cell line, 96 hours, read-out: Antiproliferative IC50 RKO. It is filed as cell-based. The method in brief:
(§1)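 Read-out is a Promega cell viability signal that rises with proliferation, taken after 96 hours of compound treatment. Compound was dosed as a 3-fold dilution series up to 20 uM final, one day after plating 1000 log-phase cells per well; IC50 is calculated against DMSO and no-cell controls.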

Test [1] relates to Colo205-LUC-TCF/LEF M1 reporter cell line (Wnt pathway). Kind of test: Colo205-LUC-TCF/LEF M1 reporter gene (luciferase) inhibition. It is filed as cell-based. As to conditions: 4 hours incubation, luciferase readout. In outline: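 Luminescent readout of TCF/LEF-regulated luciferase after a 4 h, 37° C compound exposure in a stable Colo205 reporter clone (10,000 cells/well). Serial 3-fold dilutions started at 20 uM; IC50 derived using DMSO-treated cells and no-cell wells as controls.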
A general note: Reporter assays use an easily measured gene product as a stand-in for the process of interest.

The test system of a further test is Colo205. In words: Proliferation inhibition, Wnt mutant cell line Colo205. As to conditions: Colo205, Wnt pathway-dependent, 96 hours, read-out: Antiproliferative IC50 Colo205. In kind it is cell-based. In outline:
as §1

Another test deals with Hela. In words: Proliferation inhibition, non-Wnt mutant control cell line Hela. In kind it is cell-based. Particulars: Wnt-independent control cell line, 96 hours, read-out: Antiproliferative IC50 Hela. An excerpt:
The cell lines used in the experiment are Colo205 and DU4475 cell lines whose Wnt pathway is continuously activated and whose proliferation is Wnt pathway-dependent; while the BELA and RKO cell lines, whose Wnt pathway is not activated under normal circumstances and the proliferation is independent of Wnt pathway, as control cell lines. It is Judged that the inhibitory effect of the compound of the present invention on Wnt-dependent proliferation is not caused by other non-specific toxicity.
Treat the Colo205, Du4475, HELA and RKO cell lines cultured in their respective mediums in the logarithmic growth phase, collect the cells and prepare a uniform cell suspension of known concentration, and then add it to the 96-well cell culture plate Cell suspension, so that each well contains 1000 cells. Put it into a 5% CO2 incubator and incubate at 37° C. for 20-24 h. On the second day, the fully dissolved, 3-fold serially diluted compound was added to each cell culture well, so that the final maximum concentration in the cell culture well was 20 uM, and the culture was continued for 96 hours. In this test, Promega's cell viability detection test is used for detection. The more the cells proliferate, the stronger the final signal intensity will be. The detection instrument is SpectraMax, full wavelength mode. The wells only added with DMSO were used as positive control wells, and the wells that were not inoculated with cells were used as negative control wells. […] The IC50 value of cell proliferation inhibition was used to evaluate the inhibitory effect of the compound on the Wnt pathway and the toxic effect on normal cells (Table 2).

The next test deals with NCI-H929. In words: Proliferation inhibition, NCI-H929 cell line. As to conditions: NCI-H929 cells, 96 hours culture, cell viability detection, read-out: Antiproliferative IC50 NCI-H929. In kind it is cell-based, human. The method in brief: (§2)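 Wnt-dependent proliferation in HepG2 and NCI-H929 cells, seeded at 4000 cells/well and pre-incubated 20-24 h at 37 °C. Cells were then exposed for 96 h to 3-fold serial dilutions (top final concentration 20 uM), and viability was read by signal intensity. IC50 was referenced to DMSO-only wells and cell-free wells.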

The next test relates to HepG2. Kind of test: Proliferation inhibition, HepG2 cell line. It is filed as cell-based. Particulars: Homo sapiens; HepG2 cells, 96 hours culture, cell viability detection; read-out: Antiproliferative IC50 HepG2. In outline:
as §2

A further test has as its system DU4475. Kind of test: Proliferation inhibition, Wnt mutant cell line DU4475. As to conditions: DU4475, Wnt pathway-dependent, 96 hours, read-out: Antiproliferative IC50 DU4475. It is filed as cell-based. In outline:
as §1

Test [2] concerns human myeloma cell NCI-H929 SCID xenograft. In words: Tumor growth inhibition, NCI-H929 mouse xenograft model. It is filed as in vivo. Particulars: 30 mg/kg, PO, QD x 21. As to the method: In this study, human myeloma cell NCI-H929 SCID xenograft model was used to evaluate the anti-tumor activity of compound 11 in vivo.
Female SCID were subcutaneously inoculated with human myeloma cells NCI-H929 to establish the NCI-H929 SCID xenograft model. After the tumor grew to an average tumor volume of about 80 mm^3, the tumor-bearing mice were randomly divided into two groups according to the tumor volume: the solvent-treated control group and the 30 mg/kg compound 11 group. Compound 11 was administered orally, once a day, and the administration cycle was 21 days. The tumor volume was measured every other day, and the body weight and tumor volume were measured on Day 21 (Table 4 and FIG. 1).

Where two headings read alike, the source gives them in different places.

Consider `[2H]C([2H])([2H])N1c2nc(NCc3ccc(Oc4ccc(C(F)(F)F)nc4)nc3)nc3c2N(CCC3)C(=O)[C@@H]1C` [105 (W199)], for which the half-maximal inhibitory concentration (IC50) was > 10000 nM in the test with RKO (Homo sapiens); 31 nM in test [1]; 21 nM in the test on Colo205 (Homo sapiens, COLO 205); > 10000 nM in the test on Hela (Homo sapiens); 45 nM with NCI-H929 (Homo sapiens); 44 nM in the test on HepG2. For the same compound, the IC50 in the test with DU4475 (Homo sapiens, DU-4475) was 31 nM.
As to “(S)-4,5-dimethyl-2-(((6-((6-(trifluoromethyl)pyridin-3-yl)oxy)pyridin-3-yl)methyl)amino)-4,5,9,10-tetrahydro-6H,8H-pyrido[3,2,1-de]pteridin-6-one [Example 11]”, the concentration for half-maximal inhibition (IC50) is > 10000 nM in the test on RKO; 61 nM in test [1]; 32 nM in the test on Colo205; > 10000 nM with Hela; 55 nM in the test with NCI-H929; 37 nM in the test with DU4475. Also, in test [2], the “% T/CRTV Day 21” value is listed as 1.59%. In addition, in test [2], the “% TGITW Day 21” value came to 98.86%. For the same compound, the “% TGItv Day 21” value in test [2] stood at 98.42%. The “RTV Day 21” value in test [2] is 0.33. The “Tumor weight Day 21” value in test [2] is 0.023 g.
Take `O=C1[C@@H]2CCCN2c2nc(NCc3ccc(Oc4ccc(C(F)(F)F)nc4)nc3)nc3c2N1CCC3` [111 (W241), (S)-2-(((6-((6-(trifluoromethyl)pyridin-3-yl)oxo)pyridin-3-yl)methyl)amino)-5,6,8a,9, 10,11-hexahydro-4H,8H-pyrido[3,2,1-de]pyrrolo[2,1-h]pteridin-8-one]: the IC50 in the test on RKO (Homo sapiens) was > 10000 nM; in test [1], 21 nM; with Colo205 (Homo sapiens, COLO 205) it was 20 nM; in the test on Hela (Homo sapiens), > 10000 nM; in the test on NCI-H929 (Homo sapiens), 94 nM; in the test with HepG2 it was 40 nM. In the test with DU4475 (Homo sapiens, DU-4475), the IC50 is 37 nM.
On to `CO[C@H](C)[C@H]1C(=O)N2CCCc3nc(NCc4ccc(Oc5ccc(C(F)(F)F)nc5)nc4)nc(c32)N1C` [114 (W243), (S)-5-((R)-1-methoxyethyl)-4-methyl-2-(((6-((6-(trifluoromethyl)pyridin-3-yl)oxo)pyridin-3-yl)methyl)amino)-4,5,9,10-tetrahydro-6H,8H-pyrido[3,2,1-de]pteridin-6-one], for which the IC50 is > 10000 nM with RKO (Homo sapiens); 27 nM in test [1]; 23 nM in the test with Colo205 (Homo sapiens, COLO 205); > 10000 nM with Hela (Homo sapiens); 60 nM with NCI-H929 (Homo sapiens); 37 nM in the test on HepG2. Besides, the IC50 in the test on DU4475 (Homo sapiens, DU-4475) was determined as 20 nM.
On to `C[C@H]1C(=O)N2CCCc3nc(NCc4ccc(Oc5cnc(C(F)(F)F)nc5)nc4)nc(c32)N1C` [91 (W221)], for which the half-inhibitory concentration (IC50) with RKO (Homo sapiens) is > 10000 nM; in test [1], 28 nM; in the test on Colo205 (Homo sapiens, COLO 205), 31 nM; in the test on Hela (Homo sapiens), > 10000 nM; in the test with NCI-H929 (Homo sapiens), 65 nM; in the test on HepG2, 35 nM. The 50% inhibitory concentration (IC50) in the test with DU4475 (Homo sapiens, DU-4475) stood at 24 nM.
Take `C[C@H]1Cn2ccc3nc(NCc4cnn(CC(F)(F)F)c4)nc(c32)N1C` [80 (W104)]: the IC50 with RKO (Homo sapiens) is > 10000 nM; in test [1], 10 nM; with Colo205 (Homo sapiens, COLO 205) it was 24.6 nM; in the test on Hela (Homo sapiens), > 10000 nM; in the test on HepG2, 9.3 nM; with DU4475 (Homo sapiens, DU-4475) it was 27.5 nM.
For `C[C@H]1Cn2ccc3nc(NCc4ccc(OCC(F)(F)F)nc4)nc(c32)N1C` [82 (W107)], the half-maximal inhibitory concentration (IC50) in the test with RKO (Homo sapiens) was found to be 1830 nM; in test [1], 6 nM; with Colo205 (Homo sapiens, COLO 205), 12.4 nM; in the test on Hela (Homo sapiens), 1440 nM; with HepG2, 1 nM; with DU4475 (Homo sapiens, DU-4475) it was 11 nM.
Regarding `COC[C@H]1Cn2ccc3nc(NCc4cnn(Cc5ccc(C(F)(F)F)nc5)c4)nc(c32)N1C` [68 (W49)], the IC50 in the test with RKO (Homo sapiens) is > 10000 nM; in test [1], 12 nM; in the test with Colo205 (Homo sapiens, COLO 205), 8.2 nM; in the test with Hela (Homo sapiens) it was > 10000 nM; with HepG2 it was 4.4 nM; in the test with DU4475 (Homo sapiens, DU-4475) it was 12.8 nM.
As for `CC(C)[C@H]1C(=O)N2CCCc3nc(NCc4ccc(Oc5ccc(C(F)(F)F)nc5)nc4)nc(c32)N1C` [117 (W237), (S)-5-isopropyl-4-methyl-2-(((6-((6-(trifluoromethyl)pyridin-3-yl)oxo)pyridin-3-yl)methyl)amino)-4,5,9,10-tetrahydro-6H,8H-pyrido[3,2,1-de]pteridin-6-one], the IC50 with RKO (Homo sapiens) was > 10000 nM; in test [1] it was 4 nM; with Colo205 (Homo sapiens, COLO 205) it was 3.4 nM; with Hela (Homo sapiens), > 10000 nM; in the test with NCI-H929 (Homo sapiens) it was 27 nM; in the test with HepG2 it was 3.1 nM. Further, the half-inhibitory concentration (IC50) with DU4475 (Homo sapiens, DU-4475) amounted to 8.2 nM.
Take `FC(F)(F)c1ccc(Cn2cc(CNc3nc4c5c(ccn5C[C@@H]5COCCN45)n3)cn2)cn1` [Example 28, (R)—N-((1-((6-(trifluoromethyl)pyridin-3-yl)methyl)-1H-pyrazol-4-yl)methyl)-7a,8,10,11-tetrahydro-7H-[1,4]oxazino[3,4-h]pyrrolo[3,2,1-de]pteridin-2-amine]: the concentration for half-maximal inhibition (IC50) was > 10000 nM in the test with RKO (Homo sapiens); 27 nM in test [1]; 29 nM with Colo205 (Homo sapiens, COLO 205); > 10000 nM in the test on Hela (Homo sapiens); 34 nM in the test on DU4475 (Homo sapiens, DU-4475).

For the origin of these results see patent publication US12622917B2, “High-activity Wnt pathway inhibitor compound” (ADLAI NORTYE BIOPHARMA CO., LTD., priority 2020, dated 2026).
